≈ marks a conversion by molar mass, not a printed value. Each block holds one compound with its values, some of them ahead of it. Calls of active or inactive are those of the source. The calls are words filed in the database; no cut-off is given here.
Assays:
A549 = experiment: Antiproliferative activity against human A549 cells incubated for 168 hrs by SRB method; format: functional, cell-based; conditions: A549, 168 h
MDA-MB-468 = experiment: Antiproliferative activity against human MDA-MB-468 cells incubated for 168 hrs by SRB method; format: functional, cell-based; conditions: MDA-MB-468, 168 h
MIA PaCa-2 = experiment: Antiproliferative activity against human MIA PaCa-2 cells incubated for 168 hrs by SRB method; format: functional, cell-based; conditions: MIA PaCa-2, 168 h
[1] = Acute toxicity in Balb/c mouse assessed as effect on kidney 100 mg/kg measured after 27 days by H and E staining based analysis; format: organism-based; conditions: in vivo, 648 h, time 27 day
[2] = Toxicity in Balb/c mouse assessed as effect on liver at 100 mg/kg by H and E staining based analysis; format: organism-based; conditions: in vivo
[3] = Inhibition of ND1 transcript level in human A2780 cells at 500 nM measured after 12 hrs by RT-qPCR analysis relative to control; format: functional
[4] = Acute toxicity in Balb/c mouse assessed as effect on liver 100 mg/kg measured after 27 days by H and E staining based analysis; format: organism-based; conditions: in vivo, 648 h, time 27 day
[5] = Solubility in PBS at pH 7.4; format: physicochemical
[6] = Toxicity in Balb/c mouse assessed as effect on lung at 100 mg/kg by H and E staining based analysis; format: organism-based; conditions: in vivo
A2780 [7] = experiment: Antitumor activity against human A2780 cells xenografted in BALB/c nude mouse model assessed as reduction in mitochondrial DNA transcript level at 100 mg/kg, po administered daily; format: functional, organism-based
[8] = Toxicity in Balb/c mouse assessed as effect on spleen at 100 mg/kg by H and E staining based analysis; format: organism-based; conditions: in vivo
A2780 [9] = experiment: Antitumor activity against human A2780 cells xenografted in BALB/c nude mouse model assessed as induction of tumor shrinkage 100 mg/kg by H and E staining based immunohistochemical analysis; format: functional, organism-based
MDA-MB-231 = experiment: Antiproliferative activity against human MDA-MB-231 cells incubated for 168 hrs by SRB method; format: functional, cell-based; conditions: MDA-MB-231, 168 h
NCI-H1975 = experiment: Antiproliferative activity against human NCI-H1975 cells incubated for 168 hrs by SRB method; format: functional, cell-based; conditions: NCI-H1975, 168 h
[10] = Antiproliferative activity against human PBMC cells incubated for 168 hrs by SRB method; format: functional, cell-based
A2780 [11] = experiment: Antiproliferative activity against human A2780 cells incubated for 168 hrs by SRB method; format: functional, cell-based; conditions: A2780, 168 h
[12] = Toxicity in Balb/c mouse assessed as effect on kidney at 100 mg/kg by H and E staining based analysis; format: organism-based; conditions: in vivo
NCI-H3122 = experiment: Antiproliferative activity against human NCI-H3122 cells incubated for 168 hrs by SRB method; format: functional, cell-based; conditions: NCI-H3122, 168 h
HeLa = experiment: Antiproliferative activity against human HeLa cells incubated for 168 hrs by SRB method; format: functional, cell-based
DLD-1 = experiment: Antiproliferative activity against human DLD-1 cells incubated for 168 hrs by SRB method; format: functional, cell-based; conditions: DLD-1, 168 h
[13] = Toxicity in Balb/c mouse assessed as effect on heart at 100 mg/kg by H and E staining based analysis; format: organism-based; conditions: in vivo
A2780 [14] = experiment: Antitumor activity against human A2780 cells xenografted in BALB/c nude mouse model assessed as reduction in ND1 expression in liver at 100 mg/kg, po administered daily; format: functional, organism-based
A2780 [15] = experiment: Antitumor activity against human A2780 cells xenografted in BALB/c nude mouse model assessed as reduction in tumor weight at 100 mg/kg, po administered daily and measured after 27 days relative to control; format: functional; design: scale not given: the % may be the effect or the level left; conditions: time 27 day
HepG2 = experiment: Antiproliferative activity against human HepG2 cells incubated for 168 hrs by SRB method; format: functional, cell-based; conditions: HepG2, 168 h
IMR-90 = experiment: Antiproliferative activity against human IMR-90 cells incubated for 168 hrs by SRB method; format: functional, cell-based; conditions: IMR-90, 168 h
[16] = Clearance in ICR mouse at 1 mg/kg, iv measured upto 24 hrs by LC-MS/MS analysis; format: ADME, organism-based; conditions: in vivo
[17] = AUC (0 to t) in ICR mouse at 1 mg/kg, iv measured upto 24 hrs by LC-MS/MS analysis; format: ADME, organism-based; design: time < 24 hrs, dose 1 mg/kg, route iv; conditions: in vivo
[18] = Cmax in ICR mouse at 10 mg/kg, po measured upto 24 hrs by LC-MS/MS analysis; format: ADME, organism-based; design: time < 24 hrs, dose 10 mg/kg, route po; conditions: in vivo
[19] = Half life in ICR mouse at 1 mg/kg, iv measured upto 24 hrs by LC-MS/MS analysis; format: ADME, organism-based; conditions: in vivo
[20] = AUC (0 to infinity) in ICR mouse at 1 mg/kg, iv measured upto 24 hrs by LC-MS/MS analysis; format: ADME, organism-based; design: time < 24 hrs, dose 1 mg/kg, route iv; conditions: in vivo
[21] = AUC (0 to t) in ICR mouse at 10 mg/kg, po measured upto 24 hrs by LC-MS/MS analysis; format: ADME, organism-based; design: dose 10 mg/kg, time < 24 hrs, route po; conditions: in vivo
[22] = Oral bioavailability in ICR mouse at 10 mg/kg measured upto 24 hrs by LC-MS/MS analysis; format: ADME, organism-based; conditions: in vivo
[23] = Half life in ICR mouse at 10 mg/kg, po measured upto 24 hrs by LC-MS/MS analysis; format: ADME, organism-based; conditions: in vivo
[24] = Cmax in ICR mouse at 1 mg/kg, iv measured upto 24 hrs by LC-MS/MS analysis; format: ADME, organism-based; design: time < 24 hrs, dose 1 mg/kg, route iv; conditions: in vivo
[25] = MRT in ICR mouse at 1 mg/kg, iv measured upto 24 hrs by LC-MS/MS analysis; format: ADME, organism-based; conditions: in vivo
[26] = Volume of distribution at steady state in ICR mouse at 1 mg/kg, iv measured upto 24 hrs by LC-MS/MS analysis; format: ADME, organism-based; conditions: in vivo, read-out: Vdss

Compound: C[C@@H](Oc1ccc2c(-c3ccc(F)cc3Cl)cc(=O)oc2c1)C(=O)N1CCC[C@H](C(=O)O)C1
IC50 (A549): 0.881 µM | IC50 (MDA-MB-468): 0.189 µM | IC50 (MIA PaCa-2): 0.152 µM | Activity [1]: Non-Toxic | Activity [2]: Non-Toxic | inhibition at 0.5 µM [3]: 25% | Activity [4]: Non-Toxic | solubility [5]: 6.49 µg/mL (≈ 13.7 µM) | Activity [6]: Non-Toxic | Activity (A2780 [7]): Active | Activity [8]: Non-Toxic | Activity (A2780 [9]): Active | IC50 (MDA-MB-231): > 10 µM | IC50 (NCI-H1975): 0.221 µM | IC50 [10]: > 50 µM | IC50 (A2780 [11]): 0.138 µM | Activity [12]: Non-Toxic | IC50 (NCI-H3122): > 10 µM | IC50 (HeLa): 1.05 µM | IC50 (DLD-1): 0.142 µM | Activity [13]: Non-Toxic | Activity (A2780 [14]): Active | Activity (A2780 [15]): 56.75% | IC50 (HepG2): 0.168 µM | IC50 (IMR-90): > 50 µM

clearance [16]: 2.86 L/h/kg | AUC(0-t) at 24 h [17]: 0.293 µg·h/mL | Cmax [18]: 0.0666 µg/mL | half-life [19]: 1.61 h | AUC(0-inf) [20]: 0.351 µg·h/mL | AUC(0-t) at 24 h [21]: 0.403 µg·h/mL | IC50 (A2780 [11]): 0.027 µM | bioavailability [22]: 13.7% | half-life [23]: 2.67 h | Cmax [24]: 0.235 µg/mL | MRT [25]: 2.05 h | Vd [26]: 5.84 L/kg
Compound: Cc1ccc(-c2cc(=O)oc3cc(O[C@H](C)C(=O)N4CC5CCC(C4)N5)ccc23)c(C)c1
inhibition at 0.5 µM [3]: 7%
